ChEMBL document CHEMBL4396891, “Recent update on anti-dengue drug discovery” (Eur J Med Chem, 2019)
In brackets after ≈: the same amount, converted by molar mass.

Experiments:
[1] = test system: dengue virus type 1; test: Antiviral activity against DENV1 infected in human A549 cells after 3 days by focus reduction assay; type: functional, organism-based; settings: A549, 72 h
[2] = test system: dengue virus type 1; test: Antiviral activity against DENV1 infected in African green monkey Vero cells assessed as virus yield reduction after 48 hrs by measuring plaque forming units titration; type: functional, organism-based
[3] = test system: dengue virus type 2; test: Antiviral activity against DENV2 infected in African green monkey Vero cells assessed as virus yield reduction after 48 hrs by measuring plaque forming units titration; type: functional, organism-based
[4] = test system: dengue virus type 4; test: Antiviral activity against DENV4 infected in African green monkey Vero cells assessed as virus yield reduction after 48 hrs by measuring plaque forming units titration; type: functional, organism-based
[5] = test system: dengue virus type 3; test: Antiviral activity against DENV3 infected in African green monkey Vero cells assessed as virus yield reduction after 48 hrs by measuring plaque forming units titration; type: functional, organism-based
[6] = test system: dengue virus type 2; test: Antiviral activity against DENV2 infected in African green monkey Vero cells assessed as virus yield reduction after 48 hrs by plaque assay; type: functional, organism-based
[7] = test system: dengue virus type 4; test: Antiviral activity against DENV4 infected in African green monkey Vero cells assessed as virus yield reduction after 48 hrs by plaque assay; type: functional, organism-based
[8] = test system: dengue virus type 1; test: Antiviral activity against DENV1 infected in African green monkey Vero cells assessed as virus yield reduction after 48 hrs by plaque assay; type: functional, organism-based
[9] = test system: dengue virus type 3; test: Antiviral activity against DENV3 infected in African green monkey Vero cells assessed as virus yield reduction after 48 hrs by plaque assay; type: functional, organism-based
[10] = test system: dengue virus type 4; test: Antiviral activity against DENV4 09-48 infected in African green monkey Vero cells after 3 days by focus reduction assay; type: functional, organism-based; settings: 09-48, Vero, 72 h
[11] = test system: dengue virus type 1; test: Antiviral activity against DENV1 02-20 infected in African green monkey Vero cells after 3 days by focus reduction assay; type: functional, organism-based; settings: 02-20, Vero, 72 h
[12] = test system: dengue virus type 3; test: Antiviral activity against DENV3 00-40 infected in African green monkey Vero cells after 3 days by focus reduction assay; type: functional, organism-based; settings: 00-40, Vero, 72 h
[13] = test system: dengue virus type 2; test: Antiviral activity against DENV2 16681 infected in African green monkey Vero cells after 3 days by focus reduction assay; type: functional, organism-based; settings: Dengue virus, 16681, Vero, 72 h
[14] = test system: dengue virus type 2; test: Antiviral activity against DENV2 ICC265 infected in human Huh7 cells assessed as reduction in viral titer by plaque assay; type: functional, organism-based; settings: ICC265, Huh-7
[15] = test system: dengue virus type 2; test: Antiviral activity against DENV2 assessed as reduction in plaque formation; type: functional, organism-based
[16] = test system: dengue virus type 2; test: Antiviral activity against DENV2 after 48 hrs by qRT-PCR analysis; type: functional, organism-based
[17] = test system: dengue virus type 1; test: Antiviral activity against DENV1 after 48 hrs by qRT-PCR analysis; type: functional, organism-based
[18] = test system: dengue virus type 3; test: Antiviral activity against DENV3 after 48 hrs by qRT-PCR analysis; type: functional, organism-based
[19] = test system: dengue virus type 4; test: Antiviral activity against DENV4 after 48 hrs by qRT-PCR analysis; type: functional, organism-based
[20] = test system: dengue virus type 2; test: Antiviral activity against DENV2 16681 infected in human Huh7 cells by luciferase reporter gene assay; type: functional, organism-based; settings: Dengue virus, 16681, Huh-7
[21] = test system: dengue virus type 2; test: Antiviral activity against DENV2 infected in human Huh-7 cells; type: functional, organism-based
[22] = test system: dengue virus type 4; test: Antiviral activity against DENV4 TVP360 infected in human Huh7.5 cells after 72 hrs by flow cytometric analysis; type: functional, organism-based; settings: TVP360, Huh7.5, 72 h
[23] = test system: dengue virus type 2; test: Antiviral activity against DENV2 ICC265 infected in human Huh7.5 cells after 72 hrs by flow cytometric analysis; type: functional, organism-based; settings: ICC265, Huh7.5, 72 h
[24] = test system: dengue virus type 3; test: Antiviral activity against DENV3 5532 infected in human Huh7.5 cells after 72 hrs by flow cytometric analysis; type: functional, organism-based; settings: Dengue virus, 5532, Huh7.5, 72 h
[25] = test system: dengue virus type 1; test: Antiviral activity against DENV1 FGA/89 infected in human Huh7.5 cells after 72 hrs by flow cytometric analysis; type: functional, organism-based; settings: FGA/89, Huh7.5, 72 h
[26] = test system: dengue virus type 2; test: Antiviral activity against DENV2 infected in human Huh-7 cells assessed as reduction in viral infection; type: functional, organism-based
[27] = test system: dengue virus type 2; test: Antiviral activity against DENV2 16681 infected in human Huh7 cells after 3 days by RT-qPCR analysis; type: functional, organism-based; settings: Dengue virus, 16681, Huh-7, 72 h
[28] = biological target: T1, Genome polyprotein (dengue virus type 2, UniProt P29990); test: Inhibition of His-tagged DENV2 NS2B-NS3 serine protease expressed in baculovirus infected sf9 cells
[29] = biological target: T1, Genome polyprotein; test: Inhibition of His-tagged DENV2 NS2B-NS3 serine protease
[30] = biological target: T1, Genome polyprotein; test: Inhibition of DENV2 NS2B-NS3 serine protease expressed in human Huh7 cells after 3 days by Phospha-Light SEAP reporter gene Assay; type: cell-based
[31] = biological target: T1, Genome polyprotein; test: Inhibition of DENV2 NS2B-NS3 serine protease using Boc-GRR-AMC as substrate after 30 mins
[32] = test system: dengue virus type 2; test: Virucidal activity against DENV2; type: functional, organism-based
[33] = test system: dengue virus type 2; test: Antiviral activity against DENV2 infected in African green monkey Vero cells by focus formation unit reduction assay; type: functional, organism-based
[34] = test system: dengue virus type 1; test: Antiviral activity against DENV1 infected in African green monkey Vero cells after 30 mins by immunofluorescence assay; type: functional, organism-based; settings: 0.5 h
[35] = test system: dengue virus type 2; test: Antiviral activity against DENV2 infected in African green monkey Vero cells after 30 mins by immunofluorescence assay; type: functional, organism-based; settings: 0.5 h
[36] = test system: dengue virus type 3; test: Antiviral activity against DENV3 infected in African green monkey Vero cells after 30 mins by immunofluorescence assay; type: functional, organism-based; settings: 0.5 h
[37] = test system: dengue virus type 4; test: Antiviral activity against DENV4 infected in African green monkey Vero cells after 30 mins by immunofluorescence assay; type: functional, organism-based; settings: 0.5 h
[38] = test system: dengue virus type 2; test: Antiviral activity against DENV2 infected in human HepG2 cells; type: functional, organism-based

## CC[C@H]1CN2CCc3c([nH]c4ccccc34)[C@H]2C[C@@H]1/C(=C\OC)C(=O)OC [HIRSUTINE]
[1]
  EC50: 1.9 µM

## C=CCn1c2ccccc2c(=O)c2cc(Cl)ccc21
[2]
  EC50: 12.5 to 27.1 µM
[3]
  EC50: 12.5 to 27.1 µM
[4]
  EC50: 12.5 to 27.1 µM
[5]
  EC50: 12.5 to 27.1 µM

## COc1ccc2c3ccnc(C)c3n(C)c2c1
[6]
  EC50: 3.2 to 49.5 µM
[7]
  EC50: 3.2 to 49.5 µM
[8]
  EC50: 3.2 to 49.5 µM
[9]
  EC50: 3.2 to 49.5 µM

## CC(C)C[C@H]1C(=O)N2CCC[C@H]2[C@]2(O)O[C@](NC(=O)[C@@H]3C=C4c5cccc6[nH]c(Br)c(c56)C[C@H]4N(C)C3)(C(C)C)C(=O)N12 [BROMOCRIPTINE]
[10]
  EC50: 0.8 to 1.2 µM
[11]
  EC50: 1.6 µM
[12]
  EC50: 0.8 to 1.2 µM
[13]
  EC50: 0.8 to 1.2 µM

## COc1cc2c(c(OC)c1OC)-c1c(cc(OC)c(OC)c1OC)C[C@H](C)[C@H](C)C2 [SCHISANDRIN A]
[14]
  EC50: 28.1 µM

## COc1cc(/C=C/C(=O)CC(=O)/C=C/c2ccc(O)c(OC)c2)ccc1O [CURCUMIN]
[15]
  IC50: 11.5 µM

## NCC(=O)Nc1ccc(-n2nc(C(F)(F)F)cc2-c2ccc3c(ccc4ccccc43)c2)cc1 [AR-12]
[16]
  EC50: 0.6 to 0.8 µM
[17]
  EC50: 0.6 to 0.8 µM
[18]
  EC50: 0.6 to 0.8 µM
[19]
  EC50: 0.6 to 0.8 µM

## C/C(=C\[C@H](C)C(=O)C[C@H](O)CC1CC(=O)NC(=O)C1)[C@@H]1OC(=O)/C=C/CC/C=C/C=C\[C@@H]1C [LACTIMIDOMYCIN]
[20]
  EC50: 0.4 µM
[21]
  EC50: 0.4 µM

## O=C1C[C@@H](c2ccc(O)cc2)Oc2cc(O)cc(O)c21 [NARINGENIN]
[22]
  EC50: 35.8 to 178 µM
[23]
  EC50: 35.8 to 178 µM
[24]
  EC50: 35.8 to 178 µM
[25]
  EC50: 35.8 to 178 µM

## COC(=O)c1[nH]c2ccc(Cl)cc2c1C(=O)c1cc(OC)c(O)c(OC)c1
[26]
  EC50: 4.6 µM
[27]
  EC50: 4.6 µM
[28]
  IC50: 6.7 µM
[29]
  IC50: 4.7 µM
[30]
  IC50: 6.7 µM
[31]
  IC50: 4.7 µM

## O=C(O)[C@H]1O[C@@H](Oc2cc3oc(-c4ccccc4)cc(=O)c3c(O)c2O)[C@H](O)[C@@H](O)[C@@H]1O [BAICALIN]
[32]
  IC50: 8.74 µg/mL (≈ 19.6 µM)
[33]
  IC50: 13.5 µg/mL (≈ 30.2 µM)

## C/C(=N\NC(N)=S)[C@H](Cc1c[nH]c2ccccc12)NC(=O)c1ccccc1
[34]
  EC50: 30 to 50 µM
[35]
  EC50: 30 to 50 µM
[36]
  EC50: 30 to 50 µM
[37]
  EC50: 30 to 50 µM

## COc1ccc([C@@H]2CC(=O)c3c(O)cc(O[C@@H]4O[C@H](CO[C@@H]5OC[C@](O)(CO)[C@H]5O)[C@@H](O)[C@H](O)[C@H]4O)cc3O2)cc1
[38]
  IC50: 13.1 µg/mL (≈ 22.6 µM)
